In patent US10112933B2, “Methods and compositions for treatment of fibrosis” (Baylor College of Medicine, priority 2013, dated 2018):

Molecular target: T1, Stat1 (pY701) (Homo sapiens, UniProt P42224)
T1 construct: endogenous in cells; host or cells: HepG2
T1 sequence (P42224 1-750): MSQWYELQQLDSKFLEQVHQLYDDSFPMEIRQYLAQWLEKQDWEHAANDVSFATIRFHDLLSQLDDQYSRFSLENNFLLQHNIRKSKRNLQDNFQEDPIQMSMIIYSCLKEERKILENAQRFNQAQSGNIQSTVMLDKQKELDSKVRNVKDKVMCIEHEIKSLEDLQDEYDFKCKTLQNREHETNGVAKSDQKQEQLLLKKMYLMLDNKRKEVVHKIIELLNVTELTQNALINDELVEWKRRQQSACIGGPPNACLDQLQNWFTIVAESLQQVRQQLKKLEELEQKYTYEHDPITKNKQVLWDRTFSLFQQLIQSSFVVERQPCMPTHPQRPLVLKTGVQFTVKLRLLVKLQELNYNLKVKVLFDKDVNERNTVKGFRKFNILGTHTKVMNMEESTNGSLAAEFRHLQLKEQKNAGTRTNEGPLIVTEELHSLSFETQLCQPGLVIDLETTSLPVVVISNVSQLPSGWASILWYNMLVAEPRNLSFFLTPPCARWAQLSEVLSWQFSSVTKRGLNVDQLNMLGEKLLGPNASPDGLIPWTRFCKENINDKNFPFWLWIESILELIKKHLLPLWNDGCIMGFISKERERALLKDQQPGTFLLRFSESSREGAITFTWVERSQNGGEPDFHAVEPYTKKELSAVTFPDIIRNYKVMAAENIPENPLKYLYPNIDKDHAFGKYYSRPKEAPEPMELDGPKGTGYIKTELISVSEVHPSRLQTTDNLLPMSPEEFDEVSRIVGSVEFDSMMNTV
Assay: Immunoblot: IFN-γ-mediated phosphorylation of Stat1 in HepG2 cells
Format: cell-based
Conditions: HepG2, compound 300 μM, 1 hour
Protocol: HepG2 cells were pretreated with DMSO alone or DMSO containing each of the compounds at a concentration of 300 μM for 60 min. Cells were then stimulated with IFN-γ (30 ng/ml) for 30 min. Protein extracts of cells were separated by SDS-PAGE and immunoblotted serially with antibodies to pStat1, total Stat1 and β-actin. Blots were stripped between each immunoblotting. The results shown are representative of 2 or more experiments.
Immunoblot assay. The human hepatocellular carcinoma cell line (HepG2) was grown in 6-well plates under standard conditions. Cells were pretreated with compounds (0, 1, 3, 10, 30, 100 and 300 uM) for 1 hour then stimulated under optimal conditions with either interferon gamma (IFN-γ; 30 ng/ml for 30 min) to activate Stat1 or interleukin-6 (IL-6; 30 ng/ml for 30 min) to activate Stat3 (30-31). Cultures were then harvested and proteins extracted using high-salt buffer, as described (Shao et al., 2006). Briefly, extracts were mixed with 2× sodium dodecyl sulfate (SDS) sample buffer (125 mmol/L Tris-HCL pH 6.8; 4% SDS; 20% glycerol; 10% 2-mercaptoethanol) at a 1:1 ratio and heated for 5 minutes at 100° C. Proteins (20 μg) were separated by 7.5% SDS-PAGE and transferred to polyvinylidene fluoride (PVDF) membrane (Millipore, Waltham, Mass.) and immunoblotted. Prestained molecular weight markers (Biorad, Hercules, Calif.) were included in each gel. Membranes were probed serially with antibody against Stat1 pY^701 or Stat3 pY^705 followed by antibody against Stat1 or Stat3 (Transduction labs, Lexington, Ky.) then antibody against β-actin (Abcam, Cambridge, Mass.). Membranes were stripped between antibody probing using Restore™ Western Blot Stripping Buffer (Thermo Fisher Scientific Inc., Waltham, Mass.) per the manufacturer's instructions. Horseradish peroxidase-conjugated goat-anti-mouse IgG was used as the secondary antibody (Invitrogen Carlsbad, Calif.) and the membranes were developed with enhanced chemiluminescence (ECL) detection system (Amersham Life Sciences Inc.; Arlington Heights, Ill.).
EXP IIC. Ligand-mediated pStat3 and pStat1 inhibition assays. […] Briefly, human hepatocellular carcinoma cells (HepG2) are grown in 6-well plates and pretreated with compounds (0, 0.1, 0.3, 1, 3, 10, 30, 100 μM) for 1 hour then stimulated under optimal conditions with either interleukin-6 (IL-6; 30 ng/ml for 30 min) to activate Stat3 or interferon gamma (IFN-γ; 30 ng/ml for 30 min) to activate Stat1. Cells are harvested and proteins extracted using high-salt buffer, mixed with 2× sodium dodecyl sulfate (SDS) sample buffer (125 mmol/L Tris-HCL pH 6.8; 4% SDS; 20% glycerol; 10%2-mercaptoethanol) at a 1:1 ratio then heated for 5 minutes at 100° C. Proteins (20 μg) are separated by 7.5% SDS-PAGE and transferred to polyvinylidene fluoride (PVDF) membrane (Millipore, Waltham, Mass.) and immunoblotted. Membranes are probed serially with antibody against Stat1 pY701 or Stat3 pY705 followed by antibody against Stat1 or Stat3 (Transduction labs, Lexington, Ky.) then antibody against β-actin (Abcam, Cambridge, Mass.). Membranes are stripped between antibody probings using Restore™ Western Blot Stripping Buffer (Thermo Fisher Scientific Inc., Waltham, Mass.) per the manufacturer's instructions. Horseradish peroxidase-conjugated goat-anti-mouse IgG is used as the secondary antibody (Invitrogen Carlsbad, Calif.) and the membranes are developed with enhanced chemiluminescence (ECL) detection system (Amersham Life Sciences Inc.; Arlington Heights, Ill.). Band intensities are quantified by densitometry. The value of each pStat3 band is divided by its corresponding total Stat3 band intensity; the results are normalized to the DMSO-treated control value. This value was plotted as a function of the log compound concentration. The best-fitting curve is determined using 4-Parameter Logistic Model/Dose Response/XLfit 4.2, IDBS software and was used to calculate the IC50 value.

Row | Compound | Stat1 phosphorylation after IFN-γ stimulation
1 | CCOc1cc(C=C2C(=O)c3ccccc3C2=O)cc(Cl)c1OCc1cccc(C(=O)O)c1 [Cpd3-2, 3-({2-chloro-4-[(1,3-dioxo-1,3-dihydro-2H-inden-2-ylidene)methyl]-6-ethoxyphenoxy}methyl)benzoic acid] | did not
2 | O=C(O)c1ccc(C=CC(=O)c2ccc3c(c2)OCCO3)cc1 [Cpd3, 4-[3-(2,3-dihydro-1,4-benzodioxin-6-yl)-3-oxo-1-propen-1-yl]benzoic acid] | did not
3 | CCN1C(=O)C(=Cc2ccc(-c3cc(C(=O)O)ccc3Cl)o2)C(=O)N(CC)C1=S [Cpd30-12, 4-chloro-3-{5-[(1,3-diethyl-4,6-dioxo-2-thioxotetrahydro-5(2H)-pyrimidinylidene)methyl]-2-furyl}benzoic acid] | blocked Stat1 phosphorylation
